Laboratory results published in publication PMC8333425, “Discovery of a dual Ras and ARF6 inhibitor from a GPCR endocytosis screen” (Nature Communications, 2021).

How the values were obtained:
Assay in all cases: KINOMEscan kinase binding assay
[1] = biological target: T1, 384 kinases from the human genome (Homo sapiens, UniProt O43683); details: kinase BUB1 (Entrez BUB1)
T1 construct: purchased Eurofin/DiscoverX
Procedure, shortened: (§1)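 Competition binding (KINOMEscan) across 384 human kinases with compound at 10 µM. Ligand binding was expressed relative to DMSO (100%) as the average of duplicates from one experiment. S(10) selectivity score was derived.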

[2] = biological target: T2, 384 kinases from the human genome (Homo sapiens, UniProt O60331); details: kinase PIP5K1C (Entrez PIP5K1C)
T2 construct: purchased Eurofin/DiscoverX
T2 sequence (O60331 whole entry): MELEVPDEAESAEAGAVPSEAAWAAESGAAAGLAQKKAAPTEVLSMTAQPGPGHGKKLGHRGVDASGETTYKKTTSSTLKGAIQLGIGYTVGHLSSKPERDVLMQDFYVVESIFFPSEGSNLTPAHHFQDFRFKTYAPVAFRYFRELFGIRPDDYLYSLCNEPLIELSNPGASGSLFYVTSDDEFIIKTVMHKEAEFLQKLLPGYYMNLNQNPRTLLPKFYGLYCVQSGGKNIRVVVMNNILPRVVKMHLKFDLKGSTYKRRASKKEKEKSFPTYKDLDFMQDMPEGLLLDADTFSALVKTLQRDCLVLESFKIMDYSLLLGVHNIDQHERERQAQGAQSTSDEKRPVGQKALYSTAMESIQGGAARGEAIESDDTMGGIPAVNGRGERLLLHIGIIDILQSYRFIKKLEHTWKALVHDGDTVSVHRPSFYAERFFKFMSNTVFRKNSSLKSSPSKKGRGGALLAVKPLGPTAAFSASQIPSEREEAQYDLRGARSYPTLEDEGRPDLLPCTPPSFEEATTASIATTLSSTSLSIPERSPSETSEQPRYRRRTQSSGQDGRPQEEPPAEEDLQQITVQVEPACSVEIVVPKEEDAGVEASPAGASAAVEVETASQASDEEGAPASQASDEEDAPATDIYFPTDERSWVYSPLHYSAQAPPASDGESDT
Procedure, shortened: as §1

[3] = biological target: T3, 384 kinases from the human genome (Homo sapiens, UniProt Q6P3R8); details: kinase NEK5 (Entrez NEK5)
T3 construct: purchased Eurofin/DiscoverX
T3 sequence (Q6P3R8 whole entry): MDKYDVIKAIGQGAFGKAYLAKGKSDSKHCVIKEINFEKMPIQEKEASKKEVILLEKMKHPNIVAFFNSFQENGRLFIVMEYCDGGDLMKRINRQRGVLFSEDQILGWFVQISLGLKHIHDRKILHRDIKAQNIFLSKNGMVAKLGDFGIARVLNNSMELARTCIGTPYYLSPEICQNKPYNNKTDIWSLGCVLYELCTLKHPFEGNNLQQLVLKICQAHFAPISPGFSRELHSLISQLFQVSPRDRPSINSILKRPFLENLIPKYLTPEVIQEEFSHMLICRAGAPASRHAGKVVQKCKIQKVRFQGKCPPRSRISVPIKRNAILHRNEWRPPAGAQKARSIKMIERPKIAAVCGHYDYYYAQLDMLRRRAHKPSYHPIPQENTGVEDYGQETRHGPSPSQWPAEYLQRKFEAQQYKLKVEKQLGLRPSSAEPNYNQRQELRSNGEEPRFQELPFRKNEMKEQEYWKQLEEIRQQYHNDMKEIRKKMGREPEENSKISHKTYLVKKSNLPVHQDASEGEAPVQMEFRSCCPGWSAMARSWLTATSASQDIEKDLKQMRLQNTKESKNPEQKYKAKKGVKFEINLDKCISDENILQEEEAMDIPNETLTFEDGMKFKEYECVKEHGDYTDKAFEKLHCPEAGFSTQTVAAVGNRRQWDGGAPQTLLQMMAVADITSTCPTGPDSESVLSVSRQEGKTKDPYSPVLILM
Procedure, shortened: as §1

[4] = biological target: T4, 384 kinases from the human genome (Homo sapiens, UniProt Q8WTQ7); details: kinase GRK7 (Entrez GRK7)
T4 construct: purchased Eurofin/DiscoverX
T4 sequence (Q8WTQ7 whole entry): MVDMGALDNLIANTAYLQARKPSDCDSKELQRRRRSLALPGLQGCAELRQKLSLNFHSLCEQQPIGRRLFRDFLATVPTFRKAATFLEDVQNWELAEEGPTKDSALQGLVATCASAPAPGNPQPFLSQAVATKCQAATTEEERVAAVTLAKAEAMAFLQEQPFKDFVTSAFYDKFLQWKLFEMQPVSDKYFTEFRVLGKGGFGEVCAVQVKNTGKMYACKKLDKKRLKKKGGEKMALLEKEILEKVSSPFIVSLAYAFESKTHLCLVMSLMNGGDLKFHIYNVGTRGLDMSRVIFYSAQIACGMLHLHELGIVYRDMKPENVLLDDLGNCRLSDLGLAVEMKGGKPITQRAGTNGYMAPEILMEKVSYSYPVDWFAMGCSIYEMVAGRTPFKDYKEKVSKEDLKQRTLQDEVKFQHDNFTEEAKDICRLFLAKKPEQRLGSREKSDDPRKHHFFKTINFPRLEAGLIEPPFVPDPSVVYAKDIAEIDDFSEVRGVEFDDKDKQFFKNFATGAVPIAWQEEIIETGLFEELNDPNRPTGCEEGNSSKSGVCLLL
Procedure, shortened: as §1

T1 sequence (O43683 whole entry): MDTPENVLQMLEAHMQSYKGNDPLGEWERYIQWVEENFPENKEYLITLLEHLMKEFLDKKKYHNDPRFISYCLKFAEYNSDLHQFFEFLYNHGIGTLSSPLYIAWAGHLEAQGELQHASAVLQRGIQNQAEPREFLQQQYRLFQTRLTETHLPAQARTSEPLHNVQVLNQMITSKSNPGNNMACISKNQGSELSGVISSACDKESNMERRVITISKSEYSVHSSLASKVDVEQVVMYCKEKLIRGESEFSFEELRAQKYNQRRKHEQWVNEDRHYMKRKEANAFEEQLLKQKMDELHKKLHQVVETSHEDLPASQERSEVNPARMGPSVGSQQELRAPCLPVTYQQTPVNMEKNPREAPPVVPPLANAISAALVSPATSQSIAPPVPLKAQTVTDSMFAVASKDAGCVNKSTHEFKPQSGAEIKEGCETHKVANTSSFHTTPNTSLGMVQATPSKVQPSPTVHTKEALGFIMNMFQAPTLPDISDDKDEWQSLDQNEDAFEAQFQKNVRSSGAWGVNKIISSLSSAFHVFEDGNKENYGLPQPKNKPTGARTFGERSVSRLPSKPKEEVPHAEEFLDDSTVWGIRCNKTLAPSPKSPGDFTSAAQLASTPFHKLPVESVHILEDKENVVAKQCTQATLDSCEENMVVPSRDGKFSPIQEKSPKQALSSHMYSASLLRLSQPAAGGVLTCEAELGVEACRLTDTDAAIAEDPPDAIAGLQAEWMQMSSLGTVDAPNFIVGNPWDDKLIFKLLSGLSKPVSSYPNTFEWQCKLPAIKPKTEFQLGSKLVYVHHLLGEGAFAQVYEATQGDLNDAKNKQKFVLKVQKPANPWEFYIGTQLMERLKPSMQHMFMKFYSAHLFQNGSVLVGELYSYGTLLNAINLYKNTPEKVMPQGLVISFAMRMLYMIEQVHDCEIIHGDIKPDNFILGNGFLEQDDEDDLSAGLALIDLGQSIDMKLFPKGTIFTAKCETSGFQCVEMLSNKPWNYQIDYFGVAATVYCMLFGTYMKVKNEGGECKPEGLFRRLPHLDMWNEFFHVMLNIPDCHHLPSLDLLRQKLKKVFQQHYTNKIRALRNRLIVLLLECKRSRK

CC(C)C(=O)N1CCN(c2ccc(NC(=O)c3cc4ccccc4o3)cc2Cl)CC1 [Compound 21]
Percent Control [1]: 99% | Percent Control [2]: 100% | Percent Control [3]: 74% | Percent Control [4]: 90%
